Measurements published in ChEMBL document CHEMBL1155586, “Streptazones A, B(1), B(2), C, and D: new piperidine alkaloids from streptomycetes” (2000).
The source made the active and inactive calls. No cut-off for these calls is given here.

Experiments:
MCF7 [1] = experiment: Cytotoxicity against human MCF7 cells at 50 umol/L; type: functional, cell-based
Kato3 = experiment: Cytotoxicity against human Kato3 cells at 50 umol/L; type: functional, cell-based
HMO2 = experiment: Cytotoxicity against human HMO2 cells at 50 umol/L; type: functional, cell-based
HepG2 = experiment: Cytotoxicity against human HepG2 cells; type: functional
[2] = Cytotoxicity against human HMO2 cells; type: functional
MCF7 [3] = experiment: Cytotoxicity against human MCF7 cells; type: functional
[4] = Cytotoxicity against human Kato3 cells; type: functional

| Structure (SMILES) | Activity (MCF7 [1]) | Activity (Kato3) | Activity (HMO2) | GI50 (HepG2) [nM] | TGI (HepG2) [nM] | GI50 [2] [nM] | TGI [2] [nM] | GI50 (MCF7 [3]) [nM] | TGI (MCF7 [3]) [nM] | GI50 [4] [nM] | TGI [4] [nM] |
| --- | --- | --- | --- | --- | --- | --- | --- | --- | --- | --- | --- |
| C/C=C1\C(=O)C=C2NCCC=C21 | inactive | inactive | inactive | – | – | – | – | – | – | – | – |
| C/C=C1\C=CC2=C1C(=O)CCN2 | inactive | inactive | inactive | – | – | – | – | – | – | – | – |
| C/C=C1\C(=O)C=C2NCCC3OC213 (stereo not given) [STREPTAZONE A] | – | – | – | < 100 | 2500 | 500 | 50000 | 15000 | 50000 | 600 | 1000 |
| C/C=C/C=C/C1=CC(=O)CCN1 | inactive | inactive | inactive | – | – | – | – | – | – | – | – |
| C/C=C1/C2=CCCN3C(=O)O[C@H]([C@H]1O)[C@H]23 | inactive | inactive | inactive | – | – | – | – | – | – | – | – |
